Experiments:
[1] = tested on: Mycobacterium tuberculosis CDC1551 (intracellular, in murine BMDM); test: area under intracellular growth-inhibition dose-response curve (AUC (% inhibition x dose, relative)); higher = more potent; conditions: duration: 6 days; dose range: 0.13-80 uM, 8 points
How it was run: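 Macrophages derived from primary murine bone marrow were infected for 1 h at multiplicity of infection 1 with luciferase-expressing M. tuberculosis CDC1551, then treated for 6 days at final concentrations of 80–0.13 μM. Bright-Glo luciferin signal, normalised to a reference drug control and the lowest-concentration wells, gave the growth readout. Area under the growth-inhibition dose–response curve was then calculated in GraphPad Prism.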

[2] = tested on: murine bone marrow-derived macrophages; test: area under cytotoxicity dose-response curve (AUC (% cytotoxicity x dose, relative)); higher = more cytotoxic; conditions: duration: 6 days; dose range: 0.13-80 uM, 8 points
How it was run: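 Primary murine bone marrow-derived macrophages in opaque 384-well plates were exposed to an 8-point, 2.5-fold dilution series (final 80–0.13 μM) for 6 days at 37 °C in 5% CO2. Viability was read with Promega's CellTiter-Glo luminescence assay, and percent cytotoxicity was normalised to vehicle and positive control wells. Cytotoxicity is reported as the area under the dose–response curve, calculated in GraphPad Prism version 10.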

CN(C)c1ccc(/C=N/CC2(O)CCOC(C)(C)C2)cc1 (centres undefined)
area under intracellular growth-inhibition dose-response curve [1]: 1.75 | area under cytotoxicity dose-response curve [2]: 103

COC(=O)c1c(NC(=O)CN2C(=O)NC3(CCCCC3C)C2=O)sc2c1CCC2 (centres undefined)
area under intracellular growth-inhibition dose-response curve [1]: 78.7 | area under cytotoxicity dose-response curve [2]: 4.39

Cc1ccc2[nH]c(/C(C#N)=C\c3ccc([N+](=O)[O-])o3)nc2c1
area under intracellular growth-inhibition dose-response curve [1]: 8.24 | area under cytotoxicity dose-response curve [2]: 76.5

On1c(-c2ccccc2)nc2ccccc21
area under intracellular growth-inhibition dose-response curve [1]: 28.6 | area under cytotoxicity dose-response curve [2]: < 0

COc1ccc(Cc2nnc(-c3ccccc3)o2)cc1
area under intracellular growth-inhibition dose-response curve [1]: 243 | area under cytotoxicity dose-response curve [2]: 28.8

CC(C)(C)C(=O)/C(=C/c1cccc([N+](=O)[O-])c1)n1cncn1
area under intracellular growth-inhibition dose-response curve [1]: 8.55 | area under cytotoxicity dose-response curve [2]: 157

CCOC(=O)c1cc(-c2ccc(N3CCOCC3)cc2)nn1-c1ccc(F)cc1F
area under intracellular growth-inhibition dose-response curve [1]: 15.8 | area under cytotoxicity dose-response curve [2]: 22.7

COc1ccc(N2C(C)=CC(=Cc3sc4ccccc4[n+]3C)C=C2C)cc1.[I-]
area under intracellular growth-inhibition dose-response curve [1]: < 0 | area under cytotoxicity dose-response curve [2]: 87.2

COc1cccc(OCC(=O)NC2CCCCC2)c1
area under intracellular growth-inhibition dose-response curve [1]: 226 | area under cytotoxicity dose-response curve [2]: 94

O=[N+]([O-])c1ccccc1-c1cc(-c2ccccc2)cc(-c2ccccc2)[n+]1Cc1ccccc1Cl.[O-][Cl+3]([O-])([O-])[O-]
area under intracellular growth-inhibition dose-response curve [1]: 144 | area under cytotoxicity dose-response curve [2]: < 0

O=C(CC12CC3CC(CC(C3)C1)C2)N1CCCC1
area under intracellular growth-inhibition dose-response curve [1]: 216 | area under cytotoxicity dose-response curve [2]: 75.6

CC1CCN(C(=O)c2ccc(CNc3c(N4CCCC4)c(=O)c3=O)cc2)CC1
area under intracellular growth-inhibition dose-response curve [1]: 166 | area under cytotoxicity dose-response curve [2]: 78.3

CCOc1ccc(-n2cc(-c3ccc(OC)c(OC)c3)nc2S)cc1
area under intracellular growth-inhibition dose-response curve [1]: 210 | area under cytotoxicity dose-response curve [2]: 81.6

CC(NC(=O)c1ccc(F)cc1)C1CC2CCC1C2 (centres undefined)
area under intracellular growth-inhibition dose-response curve [1]: 168 | area under cytotoxicity dose-response curve [2]: 238

Cc1ccc(NC(=O)c2cc(S(=O)(=O)N3CCCCC3)ccc2N2CCOCC2)cc1S(=O)(=O)N(C)C
area under intracellular growth-inhibition dose-response curve [1]: < 0 | area under cytotoxicity dose-response curve [2]: 58.9

Cc1ccc(S(=O)(=O)c2ccc([N+](=O)[O-])cn2)cc1
area under intracellular growth-inhibition dose-response curve [1]: < 0 | area under cytotoxicity dose-response curve [2]: 102

O=C(NCc1ccco1)c1cc([N+](=O)[O-])cc([N+](=O)[O-])c1
area under intracellular growth-inhibition dose-response curve [1]: 160 | area under cytotoxicity dose-response curve [2]: 29.1

CC1CCc2c(N3CCC(O)CC3)c(F)cc3c(=O)c(C(=O)O)cn1c23 (centres undefined)
area under intracellular growth-inhibition dose-response curve [1]: 162 | area under cytotoxicity dose-response curve [2]: 67

CC(=O)N1CCN(S(=O)(=O)c2cccc(C(=O)Nc3ccccc3N3CCCCC3)c2)CC1
area under intracellular growth-inhibition dose-response curve [1]: < 0 | area under cytotoxicity dose-response curve [2]: 21.9

Cc1nnc(NS(=O)(=O)c2ccc(N)cc2)s1
area under intracellular growth-inhibition dose-response curve [1]: 121 | area under cytotoxicity dose-response curve [2]: 29.3

O=C(CCC1CCCC1)NCc1cccs1
area under intracellular growth-inhibition dose-response curve [1]: 198 | area under cytotoxicity dose-response curve [2]: 42.7

CC(=O)/C=C(\C)Nc1ccccc1O
area under intracellular growth-inhibition dose-response curve [1]: 54.6 | area under cytotoxicity dose-response curve [2]: 95

Cc1ccc(C(=O)OCC(=O)NC2CCCC(C)C2C)cc1S(=O)(=O)N1CCCCC1 (centres undefined)
area under intracellular growth-inhibition dose-response curve [1]: 136 | area under cytotoxicity dose-response curve [2]: < 0

CSc1sccc1/C=N/NC(=O)c1ccncc1
area under intracellular growth-inhibition dose-response curve [1]: 249 | area under cytotoxicity dose-response curve [2]: 15.4

Cc1nc(SCc2ccccc2)c2oc3ccccc3c2n1
area under intracellular growth-inhibition dose-response curve [1]: 143 | area under cytotoxicity dose-response curve [2]: 34.5

Nc1nc(Cl)nc2c1ncn2[C@@H]1O[C@H](CO)[C@@H](O)[C@H]1O
area under intracellular growth-inhibition dose-response curve [1]: 205 | area under cytotoxicity dose-response curve [2]: 81.9

C/C(CC(=O)Nc1ccc(Cl)cc1Cl)=N\NC(=O)c1ccncc1
area under intracellular growth-inhibition dose-response curve [1]: 270 | area under cytotoxicity dose-response curve [2]: 46.2

CC(/C=C/c1ccccc1)=N\NC(N)=S
area under intracellular growth-inhibition dose-response curve [1]: 266 | area under cytotoxicity dose-response curve [2]: 31.1

Cc1nc(N/N=C\c2ccc3c(c2)OCO3)sc1C
area under intracellular growth-inhibition dose-response curve [1]: 252 | area under cytotoxicity dose-response curve [2]: 150

CCC(=O)NC(=S)Nc1ccc(NC(=S)NC(=O)c2ccc(C)cc2)cc1
area under intracellular growth-inhibition dose-response curve [1]: 265 | area under cytotoxicity dose-response curve [2]: 11.9

CCCCOc1ccc(C(=O)C2=C(O)C(=O)N(CCCOC)C2c2ccncc2)cc1 (centres undefined)
area under intracellular growth-inhibition dose-response curve [1]: 106 | area under cytotoxicity dose-response curve [2]: 19.4

O=C(NCCc1ccc(Cl)cc1)c1ccc(CNc2c(N3CCOCC3)c(=O)c2=O)cc1
area under intracellular growth-inhibition dose-response curve [1]: 162 | area under cytotoxicity dose-response curve [2]: < 0

C[n+]1c2ccccc2nc2ccc(NCCO)cc21.[O-][Cl+3]([O-])([O-])[O-]
area under intracellular growth-inhibition dose-response curve [1]: 107 | area under cytotoxicity dose-response curve [2]: < 0

C=CCn1c(SCC(=O)NC(=O)Cc2ccccc2)nc2ccccc2c1=O
area under intracellular growth-inhibition dose-response curve [1]: 158 | area under cytotoxicity dose-response curve [2]: < 0

CC(=O)Nc1ccc(S(=O)(=O)Nc2ccc(N3CCCCC3)cc2)cc1
area under intracellular growth-inhibition dose-response curve [1]: 27.8 | area under cytotoxicity dose-response curve [2]: 16.6

O=C(O)/C=C\C(=O)O.OC(CCCN1CCCCC1)(c1ccccc1)c1ccc(C(F)(F)F)cc1 (centres undefined)
area under intracellular growth-inhibition dose-response curve [1]: 214 | area under cytotoxicity dose-response curve [2]: 32.3

Cc1nnc(SCC2=C(C(=O)O)N3C(=O)C(NC(=O)Cn4nc(C(F)F)c(Cl)c4C)C3SC2)s1 (centres undefined)
area under intracellular growth-inhibition dose-response curve [1]: 193 | area under cytotoxicity dose-response curve [2]: < 0

CCN(CC)CCN(C(=O)C1=COCCO1)c1nc2cc(C)cc(C)c2s1.Cl
area under intracellular growth-inhibition dose-response curve [1]: 227 | area under cytotoxicity dose-response curve [2]: 22.7

Cc1ccc(-n2c(C)cc(/C=N/NC(=O)c3ccncc3)c2C)c(C)c1
area under intracellular growth-inhibition dose-response curve [1]: 268 | area under cytotoxicity dose-response curve [2]: < 0

O=C(O)c1nc(O)nc(O)c1F
area under intracellular growth-inhibition dose-response curve [1]: 174 | area under cytotoxicity dose-response curve [2]: < 0

Cn1nnnc1SCC1=C(C(=O)O)N2C(=O)C(NC(=O)Cn3nc(C(F)F)cc3C3CC3)C2SC1 (centres undefined)
area under intracellular growth-inhibition dose-response curve [1]: 177 | area under cytotoxicity dose-response curve [2]: 38.2

O=C(NC12CC3CC(CC(C3)C1)C2)c1ccc(Br)o1
area under intracellular growth-inhibition dose-response curve [1]: 171 | area under cytotoxicity dose-response curve [2]: < 0

O=C(Cn1nnc(-c2ccc(F)cc2)n1)Nc1cccc(S(=O)(=O)N2CCCC2)c1
area under intracellular growth-inhibition dose-response curve [1]: 73.7 | area under cytotoxicity dose-response curve [2]: 11.8

COCC(=O)Nc1nnc(Cc2ccc(OC)cc2)s1
area under intracellular growth-inhibition dose-response curve [1]: 159 | area under cytotoxicity dose-response curve [2]: 21.6

COc1ccc(OCc2n(CC(=O)OC3CC(C)CCC3C(C)C)c3ccccc3[n+]2C)cc1.[Cl-] (centres undefined)
area under intracellular growth-inhibition dose-response curve [1]: 139 | area under cytotoxicity dose-response curve [2]: 58.8

CC1CCc2nc3sc4c(c3c(N)c2C1)CCCC4 (centres undefined)
area under intracellular growth-inhibition dose-response curve [1]: 174 | area under cytotoxicity dose-response curve [2]: 58.3

CCOc1ncccc1C(=O)Nc1cc2c(cc1Br)OCCO2
area under intracellular growth-inhibition dose-response curve [1]: 132 | area under cytotoxicity dose-response curve [2]: 24.1

O=C(Nc1ccc(NC(=S)NC(=O)c2ccco2)cc1)c1ccccc1
area under intracellular growth-inhibition dose-response curve [1]: 192 | area under cytotoxicity dose-response curve [2]: 40

CN(C)[C@@H]1C(=O)C(C(N)=O)=C(O)[C@@]2(O)C(O)=C3C(=O)c4c(O)cccc4[C@@](C)(O)C3[C@H](O)C12.Cl (some centres undefined)
area under intracellular growth-inhibition dose-response curve [1]: 271 | area under cytotoxicity dose-response curve [2]: 62.5

CC1CCCN(c2ccc([N+](=O)[O-])s2)C1 (centres undefined)
area under intracellular growth-inhibition dose-response curve [1]: 241 | area under cytotoxicity dose-response curve [2]: < 0

CS(=O)(=O)N1CCN(C(=O)CCC2CCCC2)CC1
area under intracellular growth-inhibition dose-response curve [1]: 159 | area under cytotoxicity dose-response curve [2]: 43.1

O=C(C=Cc1cccs1)c1ccc(Cl)s1
area under intracellular growth-inhibition dose-response curve [1]: 235 | area under cytotoxicity dose-response curve [2]: 8.27
